Patent publication US20230167073A1 (Teijin Pharma Limited, priority 2020, published 2023)

Biological target: T1, Human TRPC6 (Homo sapiens, UniProt Q9Y210)
T1 construct: expressed in transfected cells
T1 sequence (Q9Y210 1-931): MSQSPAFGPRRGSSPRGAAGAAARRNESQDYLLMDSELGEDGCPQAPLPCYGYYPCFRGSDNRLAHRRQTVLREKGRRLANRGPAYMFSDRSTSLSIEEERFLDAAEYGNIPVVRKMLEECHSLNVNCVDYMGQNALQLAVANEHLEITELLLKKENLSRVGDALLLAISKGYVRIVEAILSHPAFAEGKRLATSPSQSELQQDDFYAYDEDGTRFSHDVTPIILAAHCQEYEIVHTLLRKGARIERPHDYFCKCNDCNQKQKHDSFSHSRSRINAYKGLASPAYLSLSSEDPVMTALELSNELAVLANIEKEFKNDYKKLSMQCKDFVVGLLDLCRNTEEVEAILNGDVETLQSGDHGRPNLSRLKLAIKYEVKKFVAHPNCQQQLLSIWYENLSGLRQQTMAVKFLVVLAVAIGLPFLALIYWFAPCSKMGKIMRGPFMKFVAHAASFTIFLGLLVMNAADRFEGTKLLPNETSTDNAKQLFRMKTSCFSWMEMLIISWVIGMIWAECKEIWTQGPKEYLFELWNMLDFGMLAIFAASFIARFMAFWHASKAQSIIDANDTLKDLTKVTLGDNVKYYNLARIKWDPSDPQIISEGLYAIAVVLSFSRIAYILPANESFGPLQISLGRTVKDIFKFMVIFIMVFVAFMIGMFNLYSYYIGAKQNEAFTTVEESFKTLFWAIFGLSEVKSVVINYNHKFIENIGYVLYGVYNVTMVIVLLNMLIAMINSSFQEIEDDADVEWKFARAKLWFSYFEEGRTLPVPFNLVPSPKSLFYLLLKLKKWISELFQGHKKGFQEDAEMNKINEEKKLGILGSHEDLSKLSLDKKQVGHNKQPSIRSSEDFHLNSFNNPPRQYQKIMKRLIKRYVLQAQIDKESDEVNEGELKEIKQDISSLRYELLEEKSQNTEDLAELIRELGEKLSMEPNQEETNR
Test: Evaluation of TRPC6 channel inhibitory activity (1), FLIPR Calcium 5 Assay Kit, OAG stimulation (Compound Nos. 1-1293)
Type: cell-based
Settings: Human TRPC6 stably-expressing cells, OAG 30 μM, FLIPR Calcium 5 Assay Kit; read-out: Inhibitory activity (pIC50 class) (converted)
Outline: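 The FLIPR signal is maximum fluorescence after 30 μM OAG minus minimum before compound, measured in a human TRPC6 stable line loaded with Calcium 5 dye. Compounds were preincubated 20 min. pIC50 came from four-parameter logistic fitting of inhibition rates and is given as symbol ranges.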

**Q.** Which IC50 does the source give for `Cc1cc(Oc2cc(C#N)ccc2-c2ncc(CCN)cn2)cc(N2CCOCC2)n1` [Compound 250, 4-[5-(2-aminoethyl)pyrimidin-2-yl]-3-(2-methyl-6-morpholin-4-ylpyridin-4-yl)oxybenzonitrile] here?
**A.** < 10 nM

**Q.** For `CC(N)c1cnc(-c2ccc(C#N)cc2Oc2cc(-c3ccccn3)nn2C)nc1` (centres unmarked) [compound 702, 4-[5-(1-aminoethyl)pyrimidin-2-yl]-3-(2-methyl-5-pyridin-2-ylpyrazol-3-yl)oxybenzonitrile], which IC50 is on record?
**A.** < 10 nM

**Q.** How did the IC50 turn out when `Cn1nc(C(F)(F)F)cc1Oc1cc(C#N)ccc1-n1cc(N2CCNCC2=O)cn1` [Compound 220, 3-[2-methyl-5-(trifluoromethyl)pyrazol-3-yl]oxy-4-[4-(2-oxopiperazin-1-yl)pyrazol-1-yl]benzonitrile] was run?
**A.** > 1000 nM

**Q.** With `Cn1nc(C2CC2)cc1Oc1cc(C#N)ccc1-c1ccc(CCN)cn1` [Compound 202, 4-[5-(2-aminoethyl)pyridin-2-yl]-3-(5-cyclopropyl-2-methylpyrazol-3-yl)oxybenzonitrile] as the compound, how does the IC50 read?
**A.** < 10 nM

**Q.** For `CC(C)c1nc(Oc2cc(C#N)ccc2-c2ncc(CCN)cn2)n(C)n1` [compound 813, 4-[5-(2-aminoethyl)pyrimidin-2-yl]-3-[(2-methyl-5-propan-2-yl-1,2,4-triazol-3-yl)oxy]benzonitrile], which IC50 is on record?
**A.** > 1000 nM

**Q.** How did the IC50 turn out when `Cc1nc(C2CCOCC2)cn1Cc1cc(C#N)ccc1-c1ncc([C@H](O)CN)cn1` [compound 1166] was run?
**A.** > 1000 nM

**Q.** `CN(C)C(=O)C(N)c1ccc(-c2ccc(C#N)cc2Oc2cc(C3CC3)nn2C)nc1` (centres unmarked) [compound 489, 2-amino-2-[6-[4-cyano-2-(5-cyclopropyl-2-methylpyrazol-3-yl)oxyphenyl]pyridin-3-yl]-N,N-dimethylacetamide] was tested. Which IC50 did it give?
**A.** > 1000 nM

**Q.** How did the IC50 turn out when `CC(C)Nc1cc(Oc2cc(C#N)ccc2-c2ccc([C@H](O)CN)cn2)n(C)n1` [compound 549, 4-[5-[(1S)-2-amino-1-hydroxyethyl]pyridin-2-yl]-3-[2-methyl-5-(propan-2-ylamino)pyrazol-3-yl]oxybenzonitrile] was run?
**A.** 10 to 1000 nM

**Q.** How did the IC50 turn out when `Cn1nc(C(C)(C)C)cc1C(=O)c1cc(C#N)ccc1-c1ncc(CN)cn1` [Compound No. 1030, 4-[5-(Aminomethyl)pyrimidin-2-yl]-3-(5-tert-butyl-2-methylpyrazole-3-carbonyl)benzonitrile] was run?
**A.** < 10 nM

**Q.** How did the IC50 turn out when `Cn1nc(-c2ccccn2)cc1Oc1cc(C#N)cnc1-c1ncc(CN)cn1` [compound 1287, 6-[5-(aminomethyl)pyrimidin-2-yl]-5-(2-methyl-5-pyridin-2-ylpyrazol-3-yl)oxypyridine-3-carbonitrile] was run?
**A.** > 1000 nM

**Q.** With `N#Cc1ccc(-c2ncc(CCN)cn2)c(Cn2ccnc2-c2ccccc2)c1` [compound 1182, 4-[5-(2-aminoethyl)pyrimidin-2-yl]-3-[(2-phenylimidazol-1-yl)methyl]benzonitrile] as the compound, how does the IC50 read?
**A.** > 1000 nM

**Q.** With `Cc1nc(Oc2cc(C#N)ccc2-c2nc(C)c(C(O)CN)s2)cc(N2CCOCC2)n1` (centres unmarked) [Compound 129, 4-[5-(2-amino-1-hydroxyethyl)-4-methyl-1,3-thiazol-2-yl]-3-(2-methyl-6-morpholin-4-ylpyrimidin-4-yl)oxybenzonitrile] as the compound, how does the IC50 read?
**A.** > 1000 nM

**Q.** Which IC50 does the source give for `Cn1nc(-c2ccccn2)cc1Oc1cc(C#N)ccc1-c1cc(CN)cn2ccnc12` [compound 737, 4-[6-(aminomethyl)imidazo[1,2-a]pyridin-8-yl]-3-(2-methyl-5-pyridin-2-ylpyrazol-3-yl)oxybenzonitrile] here?
**A.** < 10 nM

**Q.** With `Cc1cccc(-c2cc(Oc3cc(C#N)ccc3-c3ncc(CN)cn3)n(C)n2)n1` [compound 650, 4-[5-(aminomethyl)pyrimidin-2-yl]-3-[2-methyl-5-(6-methylpyridin-2-yl)pyrazol-3-yl]oxybenzonitrile] as the compound, how does the IC50 read?
**A.** 10 to 1000 nM

**Q.** Which IC50 does the source give for `NCCc1ccc(-c2ccc(F)cc2Oc2cnnc(N3CCOCC3)c2)nc1` [compound 1006, 2-[6-[4-fluoro-2-(6-morpholin-4-ylpyridazin-4-yl)oxyphenyl]pyridin-3-yl]ethanamine] here?
**A.** 10 to 1000 nM

**Q.** With `Cc1nc(Oc2cc(C#N)ccc2-c2ccc(CCNCCCO)cc2)cc(N2CCOCC2)n1` [Compound 58, 4-[4-[2-(3-Hydroxypropylamino)ethyl]phenyl]-3-(2-methyl-6-morpholin-4-ylpyrimidin-4-yl)oxybenzonitrile] as the compound, how does the IC50 read?
**A.** 10 to 1000 nM

**Q.** With `CC(=O)Nc1cc(Oc2cc(C#N)ccc2-c2ccc([C@H](O)CN)cn2)n(C)n1` [compound 548, N-[5-[2-[5-[(1S)-2-amino-1-hydroxyethyl]pyridin-2-yl]-5-cyanophenoxy]-1-methylpyrazol-3-yl]acetamide] as the compound, how does the IC50 read?
**A.** > 1000 nM

**Q.** How did the IC50 turn out when `CC(C)COCc1cn(Cc2cc(C#N)ccc2-c2ccc(CCN)cc2)cn1` [compound 1119, 4-[4-(2-aminoethyl)phenyl]-3-[[4-(2-methylpropoxymethyl)imidazol-1-yl]methyl]benzonitrile] was run?
**A.** 10 to 1000 nM

**Q.** Which IC50 does the source give for `Cc1nn(CC(F)(F)F)cc1Oc1cc(F)ccc1-c1ncc(CCN)cn1` [compound 968, 2-[2-[4-fluoro-2-[3-methyl-1-(2,2,2-trifluoroethyl)pyrazol-4-yl]oxyphenyl]pyrimidin-5-yl]ethanamine] here?
**A.** < 10 nM

**Q.** With `Cn1nc(C2CC2)cc1Oc1cc(C#N)ccc1-c1ccc(N)cn1` [compound 416, 4-(5-aminopyridin-2-yl)-3-(5-cyclopropyl-2-methylpyrazol-3-yl)oxybenzonitrile] as the compound, how does the IC50 read?
**A.** > 1000 nM

**Q.** With `COC1CCN(c2cc(Oc3cc(C#N)ccc3-n3cc([C@@H](O)CN)cn3)nc(C)n2)CC1` [Compound 251, 4-[4-[(1R)-2-amino-1-hydroxyethyl]pyrazol-1-yl]-3-[6-(4-methoxypiperidin-1-yl)-2-methylpyrimidin-4-yl]oxybenzonitrile] as the compound, how does the IC50 read?
**A.** > 1000 nM

**Q.** `Cc1nc(Oc2cc(C#N)ccc2-c2ncc(CCN)cn2)cc(N2CCC2)n1` [compound 853, 4-[5-(2-aminoethyl)pyrimidin-2-yl]-3-[6-(azetidin-1-yl)-2-methylpyrimidin-4-yl]oxybenzonitrile] was tested. Which IC50 did it give?
**A.** 10 to 1000 nM

**Q.** How did the IC50 turn out when `CC(C)NC(=O)c1cn(Cc2cc(C#N)ccc2-c2ccc(CCN)cc2)cn1` [compound 1113, 1-[[2-[4-(2-aminoethyl)phenyl]-5-cyanophenyl]methyl]-N-propan-2-ylimidazole-4-carboxamide] was run?
**A.** > 1000 nM

**Q.** `Cc1nc(Oc2cc(C#N)ccc2-n2cc(C(=O)CN)cn2)cc(-c2ccccc2)n1` [Compound 146, 4-[4-(2-aminoacetyl)pyrazol-1-yl]-3-(2-methyl-6-phenylpyrimidin-4-yl)oxybenzonitrile] was tested. Which IC50 did it give?
**A.** > 1000 nM

**Q.** How did the IC50 turn out when `N#Cc1ccc(-c2ncc(CCN)cn2)c(Cn2cncc2-c2ccccc2)c1` [compound 1134, 4-[5-(2-aminoethyl)pyrimidin-2-yl]-3-[(5-phenylimidazol-1-yl)methyl]benzonitrile] was run?
**A.** > 1000 nM

**Q.** `Cn1nc(C2CC2)cc1Oc1cc(C#N)ccc1-c1ccc(CC(=O)N2CCNCC2)cn1` [compound 783, 3-(5-cyclopropyl-2-methylpyrazol-3-yl)oxy-4-[5-(2-oxo-2-piperazin-1-ylethyl)pyridin-2-yl]benzonitrile] was tested. Which IC50 did it give?
**A.** > 1000 nM

**Q.** For `CC(C)Nc1cc(Oc2cc(C#N)ccc2-c2ccc(CCN)cn2)n(C)n1` [compound 575, 4-[5-(2-aminoethyl)pyridin-2-yl]-3-[2-methyl-5-(propan-2-ylamino)pyrazol-3-yl]oxybenzonitrile], which IC50 is on record?
**A.** < 10 nM

**Q.** With `Cc1nc(Oc2cc(C#N)ccc2-c2ccc(C(O)CN)c(Cl)c2)cc(N2CCOCC2)n1` (centres unmarked) [Compound 150, 4-[4-(2-amino-1-hydroxyethyl)-3-chlorophenyl]-3-(2-methyl-6-morpholin-4-ylpyrimidin-4-yl)oxybenzonitrile] as the compound, how does the IC50 read?
**A.** < 10 nM

**Q.** Which IC50 does the source give for `N#Cc1ccc(-c2ccc([C@@H](O)CN)cn2)c(Cn2cncc2-c2ccccc2)c1` [compound 1136, 4-[5-[(1R)-2-amino-1-hydroxyethyl]pyridin-2-yl]-3-[(5-phenylimidazol-1-yl)methyl]benzonitrile] here?
**A.** > 1000 nM

**Q.** Which IC50 does the source give for `CN(C)c1cc(Sc2cc(C#N)ccc2-c2ncc(CN)cn2)cnn1` [compound 1267, 4-[5-(aminomethyl)pyrimidin-2-yl]-3-[6-(dimethylamino)pyridazin-4-yl]sulfanylbenzonitrile] here?
**A.** > 1000 nM

**Q.** With `CCN(CC)c1cc(Oc2cc(C#N)ccc2-c2ncc(CCN)cn2)nc(C)n1` [compound 856, 4-[5-(2-aminoethyl)pyrimidin-2-yl]-3-[6-(diethylamino)-2-methylpyrimidin-4-yl]oxybenzonitrile] as the compound, how does the IC50 read?
**A.** < 10 nM

**Q.** Which IC50 does the source give for `N#Cc1ccc(-c2ncc(CCN)cn2)c(Oc2ccc(N3CCCC3)nc2)c1` [compound 750, 4-[5-(2-aminoethyl)pyrimidin-2-yl]-3-(6-pyrrolidin-1-ylpyridin-3-yl)oxybenzonitrile] here?
**A.** 10 to 1000 nM
